Consider twelve molecules from patent US20120028970A1, “HETEROARYLTHIOMETHYL PYRIDINE DERIVATIVE” (MSD K.K., priority 2009, published 2012).

The target of one series is T1, human NPY Y1 receptor (Homo sapiens, UniProt P25929).
T1 construct: expressed in transfected cells; host or cells: CHO-K1 NFAT β-Lactamase (Aurora)
T1 sequence (P25929 1-384): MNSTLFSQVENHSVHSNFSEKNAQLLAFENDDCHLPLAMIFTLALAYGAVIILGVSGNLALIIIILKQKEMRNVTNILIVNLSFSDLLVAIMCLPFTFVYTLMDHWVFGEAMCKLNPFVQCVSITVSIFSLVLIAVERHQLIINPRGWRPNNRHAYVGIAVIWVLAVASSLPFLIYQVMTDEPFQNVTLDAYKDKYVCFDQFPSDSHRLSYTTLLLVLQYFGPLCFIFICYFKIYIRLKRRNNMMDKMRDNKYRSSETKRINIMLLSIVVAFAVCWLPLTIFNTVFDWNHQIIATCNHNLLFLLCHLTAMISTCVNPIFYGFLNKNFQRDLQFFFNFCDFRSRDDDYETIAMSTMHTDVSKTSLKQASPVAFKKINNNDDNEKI
As to the kind of experiment: NPY binding inhibition test ([125I] peptide YY binding to membranes of NPY Y1 receptor expressing CHO-K1 cells). The note with it: membrane of CHO-K1 cells expressing human NPY Y1 receptor, 25° C., 2 hours; read-out: IC50 against specific [125I] peptide YY binding. The source says: A cDNA sequence encoding a human NPY Y1 receptor (Accession No. L07615) was cloned into expression vectors pEF1x (made by Invitrogen Inc.).

The next series addresses T2, human P-glycoprotein (Homo sapiens, UniProt P08183).
T2 construct: host or cells: porcine kidney-derived LLC-PK1 cells
As to the kind of experiment: Assay on P-glycoprotein substrate specificity (transcellular transport, LLC-PK1 cells expressing human P-glycoprotein). In kind it is in vitro ADME. To be noted: for efflux ratio at 3 h, 1 μM: pH 7.4, 1 μM test compound, human P-gp expressing LLC-PK1 cells, read-out: BA/AB (ratio of permeability coefficients Papp B to A / A to B). The procedure:
P-glycoprotein (P-gp) substrate specificities were assessed in a transcellular transport assay system using cells expressing human P-glycoprotein. The human P-glycoprotein expression cells employing porcine kidney-derived LLC-PK1 cells as host cells were obtained from Dr. Alfred Schinkel in the Netherlands Cancer Institute [see Journal of Clinical Investigation, vol. 96, p. […] The cells were seeded on a filter membrane of 24-well HTS multiwell insert system (manufactured by Beckton Dickinson) to have a concentration of 0.15 million cells/well. The cells were cultured for about 1 week to form a single layer film by the cells. The multiwell insert system is divided into two compartments (the apical membrane side compartment and the basolateral membrane side compartment). Prior to the transport experiment, cell culture media on both sides (apical and basolateral sides) were replaced by Hank's balanced salt solution (HBSS) containing an assay buffer solution (10 mM Hepes (pH 7.4)). After about 1 hour, the basolateral and apical solutions were replaced by an assay buffer solution (0.5 mL) and a 1 μM test compound-containing assay buffer solution (0.5 mL), respectively, and the transport experiment was started for transportation from Apical to Basolateral (from A to B). After 3 hours, each 50 μL was collected as a measuring sample from both of the apical and basolateral sides. The reverse operation thereof was carried out for transportation from Basolateral to Apical (from B to A). […] After termination of the transport experiment, an equal amount of acetonitrile containing the internal standard was added to each measuring sample. The measuring samples were measured using LC-MS/MS to calculate the concentrations of the test compounds by a relative calibration curve method. The permeability coefficients of the test compounds transported in each of from A to B and from B to A were calculated (Papp: Expression 1). The ratios of the permeability coefficients between A to B and B to A were also determined (BA/AB: Expression 2). BA/AB was considered to be an index of P-glycoprotein (p-gp) substrate specificity [see Drug Metabolism and Disposition, vol. 31, p.
Papp=(0.5 mL×CR)/((CD+CR)×3 hr×Area) Expression 1
BA/AB=Papp(B to A)/Paap(A to B) Expression 2
Area: surface area of filter; CD: concentration of test compound in donor side after 3 hours; CR: concentration of test compound in receiver side after 3 hours

T2 sequence (P08183 whole entry): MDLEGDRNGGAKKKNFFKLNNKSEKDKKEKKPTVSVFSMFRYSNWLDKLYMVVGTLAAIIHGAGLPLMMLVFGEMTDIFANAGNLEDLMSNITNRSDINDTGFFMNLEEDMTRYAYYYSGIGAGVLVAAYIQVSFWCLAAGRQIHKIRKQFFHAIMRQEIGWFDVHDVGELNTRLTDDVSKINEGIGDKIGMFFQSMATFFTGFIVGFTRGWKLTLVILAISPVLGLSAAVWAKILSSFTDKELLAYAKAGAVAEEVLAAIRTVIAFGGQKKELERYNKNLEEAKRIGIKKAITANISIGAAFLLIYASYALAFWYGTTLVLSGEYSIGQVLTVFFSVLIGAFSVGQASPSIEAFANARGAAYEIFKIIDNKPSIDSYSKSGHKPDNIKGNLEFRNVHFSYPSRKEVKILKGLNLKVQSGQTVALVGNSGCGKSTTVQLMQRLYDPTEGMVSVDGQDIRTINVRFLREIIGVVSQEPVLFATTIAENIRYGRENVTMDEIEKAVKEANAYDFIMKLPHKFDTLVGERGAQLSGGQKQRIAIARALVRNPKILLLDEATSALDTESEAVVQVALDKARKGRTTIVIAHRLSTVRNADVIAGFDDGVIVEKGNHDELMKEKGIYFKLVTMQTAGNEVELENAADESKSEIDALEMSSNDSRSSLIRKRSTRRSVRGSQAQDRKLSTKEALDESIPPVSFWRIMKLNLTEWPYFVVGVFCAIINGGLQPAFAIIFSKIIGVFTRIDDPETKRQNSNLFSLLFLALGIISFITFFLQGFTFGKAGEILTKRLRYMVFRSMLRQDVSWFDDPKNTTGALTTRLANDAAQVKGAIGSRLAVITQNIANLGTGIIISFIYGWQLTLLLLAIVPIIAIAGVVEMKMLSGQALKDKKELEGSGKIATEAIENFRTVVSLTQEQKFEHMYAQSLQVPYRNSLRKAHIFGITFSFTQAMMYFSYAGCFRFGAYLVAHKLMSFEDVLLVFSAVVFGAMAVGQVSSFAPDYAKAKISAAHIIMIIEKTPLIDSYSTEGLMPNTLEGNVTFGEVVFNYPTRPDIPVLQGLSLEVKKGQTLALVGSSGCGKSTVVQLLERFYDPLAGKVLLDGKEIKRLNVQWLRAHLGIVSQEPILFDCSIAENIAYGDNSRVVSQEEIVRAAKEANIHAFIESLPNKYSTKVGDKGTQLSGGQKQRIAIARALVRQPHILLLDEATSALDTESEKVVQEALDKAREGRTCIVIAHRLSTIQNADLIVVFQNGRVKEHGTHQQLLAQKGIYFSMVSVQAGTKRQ

Regarding `C=CCNc1cc(N2[C@@H]3CC[C@H]2C[C@H](F)C3)cc(CSc2nc(C)c(CC)s2)n1` [Example 4, 6-{[(5-ethyl-4-methyl-1,3-thiazol-2-yl)sulfanyl]methyl}-4-[(3-exo)-3-fluoro-8-azabicyclo[3,2,1]octo-8-yl]-N-(prop-2-en-1-yl)pyridin-2-amine], the IC50 on human NPY Y1 receptor was found to be 0.27 nM.

Regarding `Cc1cccc(CNc2cc(N3CCSCC3)cc(CSc3nc(C)c(C)s3)n2)n1` [Example 2, 6-{[(4,5-dimethyl-1,3-thiazol-2-yl)sulfanyl]methyl}-N-[(6-methylpyridin-2-yl)methyl]-4-(thiomorpholin-4-yl)pyridin-2-amine], the IC50 at human NPY Y1 receptor turned out to be 0.17 nM. As to `C=CCNc1cc(N2CCC(F)(F)CC2)cc(CSc2cc(CC)n(C)n2)n1` [Example 6, 4-(4,4-difluoropiperidin-1-yl)-6-{[(5-ethyl-1-methyl-1H-pyrazol-3-yl)sulfanyl]methyl}-N-(prop-2-en-1-yl)pyridin-2-amine], at human NPY Y1 receptor, the IC50 worked out at 0.28 nM. Consider `C=CCOC(=O)Nc1cccc(CNc2cc(C3CCOCC3)cc(CSc3nnc(CC)s3)n2)c1` [Compound (A), reference compound], for which, on human P-glycoprotein, the efflux ratio at 3 h, 1 μM was determined as 5. Also, the IC50 at human NPY Y1 receptor is 0.33 nM. Turning to `Cc1cccc(CNc2cc(N3CCOCC3)cc(CSc3nc(CF)c(C)s3)n2)n1` [Example 9, 6-({[4-(fluoromethyl)-5-methyl-1,3-thiazol-2-yl]sulfanyl}methyl)-N-[(6-methylpyridin-2-yl)methyl]-4-(morpholin-4-yl)pyridin-2-amine], at human P-glycoprotein, the “human P-glycoprotein substrate specificity (in words)” value is “notably low human P-glycoprotein substrate specificity” and the efflux ratio at 3 h, 1 μM stood at 1.8. For the same molecule, the IC50 on human NPY Y1 receptor turned out to be 0.2 nM. Take `Cc1cccc(CNc2cc(N3C4CCC3CC(F)(F)C4)cc(CSc3cc(C)n(C)n3)n2)n1` [Example 5, 4-(3,3-difluoro-8-azabicyclo[3,2,1]octo-8-yl)-6-{[(1,5-dimethyl-1H-pyrazol-3-yl)sulfanyl]methyl}-N-[(6-methylpyridin-2-yl)methyl]pyridin-2-amine]: the IC50 at human NPY Y1 receptor amounted to 0.24 nM. In the case of `CCc1sc(SCc2cc(N3CCOCC3)cc(NCc3cccc(C)n3)n2)nc1CF` [Example 10, 6-({[5-ethyl-4-(fluoromethyl)-1,3-thiazol-2-yl]sulfanyl}methyl)-N-[(6-methylpyridin-2-yl)methyl]-4-(morpholin-4-yl)pyridin-2-amine], the IC50 at human NPY Y1 receptor amounted to 0.13 nM. Consider `CCCCNc1cc(N2CCC(F)(F)CC2)cc(CSc2nn(C)c(CC)c2C)n1` [Example 7, N-butyl-4-(4,4-difluoropiperidin-1-yl)-6-{[(5-ethyl-1,4-dimethyl-1H-pyrazol-3-yl)sulfanyl]methyl}pyridin-2-amine], for which, at human NPY Y1 receptor, the IC50 is 0.27 nM. Turning to `Cc1nc(SCc2cc(N3CCSCC3)cc(NCc3cccc(F)n3)n2)oc1C` [Example 1, 6-{[(4,5-dimethyl-1,3-oxazol-2-yl)sulfanyl]methyl}-N-[(6-fluoropyridin-2-yl)methyl]-4-(thiomorpholin-4-yl)pyridin-2-amine], on human P-glycoprotein, the “human P-glycoprotein substrate specificity (in words)” value is “notably low human P-glycoprotein substrate specificity” and the efflux ratio at 3 h, 1 μM stood at 1.9. At human NPY Y1 receptor, the IC50 was determined as 0.27 nM.

Take `CCc1sc(SCc2cc(N3CCC(F)CC3)cc(NCc3cccc(C)n3)n2)nc1C` [Example 3, 6-{[(5-ethyl-4-methyl-1,3-thiazol-2-yl)sulfanyl]methyl}-4-(4-fluoropiperidin-1-yl)-N-[(6-methylpyridin-2-yl)methyl]pyridin-2-amine]: the IC50 at human NPY Y1 receptor worked out at 0.26 nM.

For `CCc1c(C)c(SCc2cc(N3CCC(F)(F)CC3)cc(NCCOC)n2)nn1C` [Example 8, 4-(4,4-difluoropiperidin-1-yl)-6-{[(5-ethyl-1,4-dimethyl-1H-pyrazol-3-yl)sulfanyl]methyl}-N-(2-methoxyethyl)pyridin-2-amine], the IC50 on human NPY Y1 receptor was 0.27 nM.

As to `Cc1cccc(CNc2cc(N3CCOCC3)cc(CSc3nc(CF)c(C4CC4)s3)n2)n1` [Example 11, 6-({[5-cyclopropyl-4-(fluoromethyl)-1,3-thiazol-2-yl]sulfanyl}methyl)-N-[(6-methylpyridin-2-yl)methyl]-4-(morpholin-4-yl)pyridin-2-amine], at human NPY Y1 receptor, the IC50 came out at 0.19 nM.
